Compound | melting point [°C]
COC(=O)C=Cc1cc(-c2nn(C)c(C(F)(F)F)c2Cl)c(F)cc1Cl | 117
CC(=NC(=Nc1ccccc1)N1CCOCC1)NC(C)(C)C | 164 to 166
O=C1N=NC(=O)c2c1[nH]c1cc(Br)cc(Br)c21 | > 400
COc1cccc(C(O)c2nc3c(cc2C)CCCCC3)c1 (stereo not drawn) | 104 to 106
CN1C(=O)[C@@H](NC(=O)c2ccccc2I)N=C(c2ccccc2)c2ccccc21 | 115 to 120
O=C(c1cccn1N1C(=O)c2ccccc2C1=O)C1CC1 | 150 to 152
CCCCc1nn(-c2cc([N+](=O)[O-])ccc2C(F)(F)F)c(=O)n1Cc1ccc(-c2ccccc2S(=O)(=O)NC(C)(C)C)cc1 | 135 to 137
COc1ccc(C2=NN(c3ccc(C4=NNC(=O)CC4C)cc3)C(=O)C3CC=CCC23)cc1Cl (stereo not drawn) | 198 to 201
Cc1c(C=O)c2cc(F)ccc2n1-c1ccc(OCc2ccccc2)cc1 | 219 to 220
COc1ccc(-c2cc3c(n2CCN(C)C)CCCC3)cc1 | 81 to 82
Cc1cc(=O)[nH]c(NC(=N)Nc2ccccc2C)n1 | 260
COc1cc(O)c(C(=O)C=Cc2ccc(Cl)cc2)c(OC)c1 | 167
Cc1ccc(C(=C(C=O)c2nnnn2C)c2ccc(C)cc2F)c(F)c1 | 154 to 155
O=C(OCN1C(=O)c2ccccc2S1(=O)=O)c1ccncc1 | 145 to 146
O=c1[nH]c2cc(Cl)cc(Cl)c2c(=O)n1Cc1ccccc1F | 275 to 278
CC(C)NC(=O)c1cc2nc(C3CC3)n(C)c2c(Cl)c1NC(=O)c1cc(C(F)(F)F)nn1-c1ncccc1Cl | 242 to 244
Cc1[nH]c2ncnc(Nc3cccc(Cl)c3)c2c1C | 239 to 240
CCC=NNC(=O)c1cc(OC)cc(Oc2cccc(C(F)(F)F)c2)n1 | 154 to 155
CC(=O)N(C(C)=O)c1c(C#N)cnn1-c1c(F)c(F)c(C)c(F)c1F | 132 to 133
Cn1c(C(N)=O)c(-c2ccc(N)cc2)c2ccccc21 | 96 to 98
COc1cc(Nc2c(C#N)cnc3cc(OCCN4CCN(C)CC4)c(OC)cc23)c(Cl)cc1Cl | 165 to 167
CCC(C)(NC(=O)C1=C(C(=O)Nc2cc(OC3CCCC3)c(Cl)cc2F)CCCC1)c1ccc(Cl)cc1 (stereo not drawn) | 200 to 201
OCCCc1cnoc1-c1ccc(Br)cc1 | 72 to 73
CCc1ccc2c(c1)Cc1cc(C(C)=O)ccc1-2 | 120 to 122
CCOC(=O)c1cc2cc(NC(C)C)ccc2nn1 | 167 to 168
Cc1ccc(C2c3c(C)c(N4CCN(c5cccnc5)CC4)c(C)c(C)c3OC2(C)C)cc1 (stereo not drawn) | 136 to 137

Compound | melting point [°C]
NS(=O)(=O)c1cccc(NC(=O)c2cnn3c(C(F)(F)F)cc(-c4ccc(C(F)(F)F)c(F)c4)nc23)c1 | 259
O=C1CCC(N2C(=O)c3cccc(OCc4ccc(CN5CCN6N=C(C(F)(F)F)NC6C5)cc4)c3C2=O)C(=O)N1 (stereo not drawn) | 128 to 130
O=c1c2c([nH]c3nc(NCc4ccccc4)nn13)CCCS2 | 332 to 335
Cc1ccc(NC(=O)c2cccc(N3CCOCC3)c2)cc1NC(=O)c1cccc(OC2CCNCC2)c1 | 162 to 166
O=C(Nc1c(C(O)(C(F)(F)F)C(F)(F)F)ccc2ccccc12)c1cccc(Br)c1 | 184 to 185
CCOC(=O)c1cc(S(N)(=O)=O)c(Cl)cc1Cl | 119 to 122
N#Cc1cc(O)ccc1Br | 183 to 184
CCc1oc2ccccc2c1C(=O)c1ccc(OC)cc1 | 81
O=c1c2c(c3cccnc3n1-c1ccccc1)OCCCC2 | 180 to 181
OC(Cc1ccncc1)(c1ccccc1)c1ccccc1 | 154 to 155
NC(=O)N(O)Cc1ccc(OCc2ccccc2)cc1 | 147 to 149
CCOC(=O)/C=C/c1cc(Br)ccc1N(C)Cc1cnn(C)c1 | 67 to 68
COC(=O)c1c(-c2cccc([N+](=O)[O-])c2)cc(-c2ccccc2)nc1C | 127 to 129
CCC(CC)n1cc(Br)nc(N2CCc3cc(Cl)cc(Cl)c32)c1=O | 158 to 160
NC(=O)NC(Cc1c[nH]c2ccccc12)C(=O)NCc1cc(C(F)(F)F)cc(C(F)(F)F)c1 (stereo not drawn) | 210 to 212
Cc1oc(-c2ccc(C(F)(F)F)cc2)nc1COc1cccc(CN(O)C(N)=O)c1 | 125 to 126
CCc1nn(C2CCCC2)c2cc(C(=O)NCCc3ccncc3)ccc12 | 123 to 126
CCOC(=O)c1cn(C)c2cnc3cc(F)c(N4CCCC(C)(C)C4)cc3c2c1=O | 218 to 220
O=C1c2cccc(-c3ccc(C(F)(F)F)cc3)c2CC1Br (stereo not drawn) | 94 to 97
CCCNCCC1Cc2ccc(-c3ccc(=O)[nH]n3)cc2C1 (stereo not drawn) | 150 to 151
COc1cc(CN2CCN(Cc3ccc(NC(=O)C4=Cc5cc(-c6ccc(C)cc6)ccc5CC4)cc3)CC2)cc(OC)c1OC | 143 to 144
CS(=O)Cc1cc(C(F)(F)F)ccc1N (stereo not drawn) | 122 to 125
C=CCc1cccc2c(=O)cc(-c3ccccc3F)oc12 | 78 to 81
NC(=O)c1nc[nH]c1F | 253 to 254
CNC(=O)N1CC(Oc2ccccc2C(N)=O)C1 | 236 to 240
Cc1cc(NS(=O)(=O)c2cccs2)c2[nH]c(C3=NCCS3)cc2c1 | 202 to 203

Compound | melting point [°C]
CCc1c(N)c(C(N)=O)nn1CCN1CCOCC1 | 152 to 153
c1csc(CNc2nccc3ccccc23)c1 | 86.5 to 87.5
N#Cc1c(-c2cccc(N)c2)cc(-c2ccccc2O)nc1NC(=O)C1CCCCC1 | 236 to 238
CC(C)C(C)(C#N)N1C(=O)c2cccc(O)c2C1=O (stereo not drawn) | 110 to 111
O=C(O)c1cn(-c2cccc(F)c2)c2c(F)c(F)c(F)cc2c1=O | 89 to 91
Cc1ncccc1Cn1nnnc1-c1cccc(Cl)c1Cl | 121 to 122
NC(=O)CNC(=O)c1cccc(-c2cccc3cc(COc4cc(Cl)cc(Cl)c4)sc23)c1 | 164 to 165
Cc1nc(N2CCC(O)C2)c2nc(-c3ccccc3)cc-2[nH]1 (stereo not drawn) | 234 to 235
CCCCCCCCCCCOc1ccc(O)cc1C=O | 66 to 67
OC1CSC(Oc2cc(-c3ccc(F)nc3)ccc2Cl)C(O)C1O (stereo not drawn) | 185
CCC(CC)(CCl)c1cc(Cl)nnc1Cl | 45 to 47
O=Cc1cnc(-c2ccc(F)cc2)nc1 | 168
CCCCOc1ccc(CCNc2ncnc(CC)c2C(=O)O)cc1 | 208 to 211
CN(C)Cc1nnc2n1-c1ccc(Cl)cc1C(c1ccc(Cl)cc1)=[N+]([O-])C2 | 260
CC(C)Cc1nn(C)c(=O)c2c(S(=O)CCCO)c(Cc3cccc4ccccc34)sc12 (stereo not drawn) | 60 to 65
COc1ccccc1N1CCN(CCCn2c(=O)[nH]c3ccsc3c2=O)CC1 | 78 to 84
COc1ccc(C2=C(c3ccc(S(N)(=O)=O)cc3)CCC2)cc1F | 170 to 171
CC(=O)Nc1cnn2cnc3ccccc3c12 | 256 to 258
CC(Oc1ccccc1)c1nnc(N)s1 (stereo not drawn) | 157 to 167
OCc1nc(-c2ccccc2)ccc1Cl | 69 to 70
CC1(C)C(=O)N(c2ccnc(N)c2)c2cccnc21 | 210 to 211
COc1cc2ncnc(N3CCC(N)CC3)c2cc1OC | 133 to 135
CN(C)Cc1nc(CSCCNC(=N)N[N+](=O)[O-])cs1 | 104 to 106
COc1ccc(C2NCCc3c2[nH]c2ccccc32)cc1 (stereo not drawn) | 131
COc1ccc(C(=O)Nc2ccc(C)cc2)cc1N | 190 to 194
COC(=O)c1ccc(Cn2nc(Cl)c3ccc([N+](=O)[O-])cc32)c(OC)c1 | 131 to 132

Compound | melting point [°C]
NC(=O)CCCCCc1cccnc1 | 64 to 65
CCC(CC)N(O)C(=O)Nc1ccccc1Oc1ccccc1 | 141 to 142
O=C(O)c1ccc([N+](=O)[O-])c(S(=O)(=O)CCO)c1 | 176 to 177
CCN1C(=O)C(C(=O)Nc2cccc(C(=O)Nc3ccc(Cl)cc3)c2)c2cc(C(C)=O)ccc21 (stereo not drawn) | 119 to 121
Cn1cc(C2=C(c3c4n(c5ccccc35)CCN(C(=O)OC(C)(C)C)C4)C(=O)OC2=O)c2ccccc21 | 125 to 127
N#Cc1ccc2nc3sc(-c4ccccc4)cc3c(=O)n2c1 | 349 to 351
CCCCC1(CC(=O)N(CC)CC)C(=O)N(c2ccccc2)N(c2ccccc2)C1=O | 80.5 to 82
Cn1c(=O)c2c(ncn2CC(O)Cc2noc(-c3ccccc3)n2)n(C)c1=O (stereo not drawn) | 179 to 180
COC(=O)CCCC(=O)c1ccc(CCNC(C)=O)cc1 | 107 to 108
BrCc1ccc2c(c1)CCO2 | 57 to 60
COc1ccc(N2CCN(c3c(C)c(C)c4c(c3C(C)C)CC(C)(C)O4)CC2)cc1 | 192 to 194
CCNc1ccc(F)cc1OCc1ccccc1 | 58 to 59
COc1cc(C(C)(C)C)c2c(c1)C(C)(C)C(=O)O2 | 63.5 to 64.5
O=C(NCCc1ccnc(-c2nc(=O)c3ccccc3s2)c1)c1ccccc1 | 217 to 219
CCCCCCCCCCCCCCCCCCC(N)(CO)CO | 76 to 80
CC(=O)Nc1nc(N)nc(-c2ccc(Oc3ccccc3)cc2)n1 | > 260
O=C(O)CCC(=O)c1ccc(O)c(Cl)c1 | 155 to 160
CC(Sc1ncnc2[nH]cnc12)c1oc2ccc(Br)cc2c(=O)c1-c1ccccc1 (stereo not drawn) | 234 to 237
COC(=O)c1cc(NCc2c(F)c(F)c(C(F)(F)F)c(F)c2F)ccc1O | 127
CCOC(=O)COc1cccc2c1oc1sc(Nc3ccccc3)nc12 | 196 to 198
CC1Oc2ccc(OCc3nc4cc(F)ccc4s3)cc2C(=O)C1Cc1cccc(NS(=O)(=O)C(F)(F)F)c1 (stereo not drawn) | 183 to 185
CNCC1Cc2cccc(-c3c(C)cccc3C)c2O1 (stereo not drawn) | > 250
O=C(NCc1ccc(Cl)cc1)c1cnc2ccc(CO)cc2c1O | 288 to 289
C#CCOC(=O)N(I)C(C)C(=O)OC (stereo not drawn) | 100 to 102
CC(C)C(=O)Nc1ccc2ncn3c(=O)c(C(=O)O)cnc3c2c1 | 312 to 314

— a melting point compilation (Tetko et al.; mined from patent text by program, amines drawn as free bases though some values may be those of a salt)
